Experimental data from patent US12227501B2, “3-amino-2-[2-(acylamino)pyridin-4-yl]-1,5,6,7-tetrahydro-4h-pyrrolo[3,2-c]pyridin-4-one as CSNK1 inhibitors” (Bayer Aktiengesellschaft, priority 2019, dated 2025).
pIC50: −log10 of the molar value. Read-outs that look alike come from different tables or passages of the source.

How the values were obtained:
Assay type in all cases: biochemical
human CSNK1A1 [1] = biological target: T1, human CSNK1A1 (Homo sapiens (Human), UniProt P48729); assay: CSNK1A1 Assay 2 (ADP-Glo, 1 μM ATP); settings: substrate biotin-Ahx-KRRRAL-pS-VASLPGL, read-out: CSNK1A1 Assay 2 IC50 [mol/l] (median)
How it was run: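 Full-length human CSNK1A1 as an N-terminal GST fusion (baculovirus/insect cells) with biotinylated peptide substrate biotin-Ahx-KRRRAL-pS-VASLPGL and 1 μM ATP, in HEPES pH 7.5 buffer. Compounds were pre-incubated with enzyme (~0.0375 ng/μL) for 15 min at 22 °C. Generated ADP was read by ADP-Glo luminescence as the activity measure.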

human CSNK1A1 [2] = biological target: T1, human CSNK1A1; assay: CSNK1A1 High ATP Assay (ADP-Glo, 1 mM ATP); settings: read-out: CSNK1A1 high ATP assay IC50 [mol/l] (median)
How it was run: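 Kinase activity taken as ADP generated, quantified by ADP-Glo luminescence after 1 h ATP depletion and 1 h detection at 22 °C. Enzyme is GST–full-length human CSNK1A1 (insect cell-expressed), pre-bound to compound for 15 min, with phosphopeptide substrate and 1 mM ATP.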

human CSNK1D = human CSNK1D (Homo sapiens (Human), UniProt P48730); assay: CSNK1D Assay (ADP-Glo, 1 μM ATP); settings: read-out: CSNK1D IC50 [mol/l] (median)
How it was run: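 Activity is read as ADP produced, by ADP-Glo luminescence after 1 h steps at 22 °C. The reaction uses 1 μM ATP, a biotinylated peptide and insect-cell-expressed GST–CSNK1D (about 0.5 ng/μL) in pH 7.5 HEPES buffer, with 15 min compound–enzyme preincubation.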

[3] = biological target: wild-type Epidermal Growth Factor Receptor (EGFR) (Homo sapiens (Human), UniProt P00533); assay: WT-EGFR Kinase Assay (TR-FRET, 2 mM ATP)
[4] = EGFR Wildtyp- 2 mM ATP IC50 [mol/l] (median)
[5] = read-out: EGFR Wildtyp- 2 mM ATP IC50 [mol/l] (median)

Sequence of human CSNK1D (P48730 whole entry): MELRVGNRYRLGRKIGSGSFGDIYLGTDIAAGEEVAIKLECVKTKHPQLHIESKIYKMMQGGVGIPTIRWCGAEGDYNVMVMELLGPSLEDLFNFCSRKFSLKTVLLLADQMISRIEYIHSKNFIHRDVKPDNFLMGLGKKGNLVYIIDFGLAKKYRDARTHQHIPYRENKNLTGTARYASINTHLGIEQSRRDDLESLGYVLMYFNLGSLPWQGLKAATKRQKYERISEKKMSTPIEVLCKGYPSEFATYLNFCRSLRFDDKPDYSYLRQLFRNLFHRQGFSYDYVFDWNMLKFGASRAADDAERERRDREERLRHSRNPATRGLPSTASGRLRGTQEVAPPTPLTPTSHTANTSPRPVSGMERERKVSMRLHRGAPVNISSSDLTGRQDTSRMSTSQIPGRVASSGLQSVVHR
T1 sequence (P48729 whole entry, the tested form may be a part): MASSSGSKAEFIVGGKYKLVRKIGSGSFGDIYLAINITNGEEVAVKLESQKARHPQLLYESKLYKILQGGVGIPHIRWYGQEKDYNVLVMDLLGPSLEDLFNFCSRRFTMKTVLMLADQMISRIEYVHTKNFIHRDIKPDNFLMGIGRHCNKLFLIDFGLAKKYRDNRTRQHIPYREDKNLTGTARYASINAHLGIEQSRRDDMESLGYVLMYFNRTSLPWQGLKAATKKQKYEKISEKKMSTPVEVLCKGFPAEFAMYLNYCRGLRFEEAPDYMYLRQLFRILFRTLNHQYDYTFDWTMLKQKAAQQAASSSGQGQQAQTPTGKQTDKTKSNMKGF
Sequence of wild-type Epidermal Growth Factor Receptor (EGFR) (P00533 669-1210): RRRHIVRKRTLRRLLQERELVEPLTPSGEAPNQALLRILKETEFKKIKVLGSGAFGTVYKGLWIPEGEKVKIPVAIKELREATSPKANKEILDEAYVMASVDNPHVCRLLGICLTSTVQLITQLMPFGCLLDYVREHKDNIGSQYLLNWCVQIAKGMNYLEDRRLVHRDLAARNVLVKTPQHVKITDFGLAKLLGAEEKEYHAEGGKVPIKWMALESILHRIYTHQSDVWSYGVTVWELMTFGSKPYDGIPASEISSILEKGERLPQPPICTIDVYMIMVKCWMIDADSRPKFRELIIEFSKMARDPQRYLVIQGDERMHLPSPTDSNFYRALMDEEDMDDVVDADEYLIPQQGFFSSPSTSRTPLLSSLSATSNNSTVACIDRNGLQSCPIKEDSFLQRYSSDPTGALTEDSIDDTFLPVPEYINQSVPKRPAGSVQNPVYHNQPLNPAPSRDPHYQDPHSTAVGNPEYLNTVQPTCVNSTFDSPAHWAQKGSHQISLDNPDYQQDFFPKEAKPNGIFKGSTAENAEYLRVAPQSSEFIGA

Structure (SMILES)	pIC50 (human CSNK1A1 [1])	pIC50 (human CSNK1A1 [2])	pIC50 (human CSNK1D)	pIC50 [3, 4]	pIC50 [3, 5]
Cc1ccccc1Nc1c(-c2ccnc(NC(=O)C(C)c3ccc(F)cc3)c2)[nH]c2c1C(=O)NC(C)(C)C2 (single isomer, unassigned; enantiomer 2) [Example 134, N-{4-[6,6-dimethyl-3-(2-methylanilino)-4-oxo-4,5,6,7-tetrahydro-1H-pyrrolo[3,2-c]pyridin-2-yl]pyridin-2-yl}-2-(4-fluorophenyl)propanamide (Enantiomer 2)]	7.72	6.52	7.34	< 4.70	–
Cc1ccccc1Nc1c(-c2ccnc(NC(=O)C(CC(F)F)c3ccc(F)cc3)c2)[nH]c2c1C(=O)NC(C)(C)C2 (single isomer, unassigned; enantiomer 2) [Example 137, N-{4-[6,6-dimethyl-3-(2-methylanilino)-4-oxo-4,5,6,7-tetrahydro-1H-pyrrolo[3,2-c]pyridin-2-yl]pyridin-2-yl}-4,4-difluoro-2-(4-fluorophenyl)butanamide (Enantiomer 2)]	7.37	6.35	7.08	–	< 4.70
CC1(C)Cc2[nH]c(-c3ccnc(NC(=O)C(CN)c4ccc(F)cc4)c3)c(Nc3ccccc3)c2C(=O)N1 (single isomer, unassigned; enantiomer 2) [Example 141, 3-amino-N-[4-(3-anilino-6,6-dimethyl-4-oxo-4,5,6,7-tetrahydro-1H-pyrrolo[3,2-c]pyridin-2-yl)pyridin-2-yl]-2-(4-fluorophenyl)propanamide (Enantiomer 2)]	7.24	6.22	6.90	–	< 4.70
Cc1ccccc1Nc1c(-c2ccnc(NC(=O)C(CC(F)F)c3ccc(F)cc3)c2)[nH]c2c1C(=O)NC1(CCC1)C2 (single isomer, unassigned; enantiomer 2) [Example 145, (+)-4,4-difluoro-2-(4-fluorophenyl)-N-{4-[3′-(2-methylanilino)-4′-oxo-1′,4′,5′,7′-tetrahydrospiro[cyclobutane-1,6′-pyrrolo[3,2-c]pyridin]-2′-yl]pyridin-2-yl}butanamide-(Enantiomer 2)]	7.97	7.83	8.09	–	< 4.70
O=C1NC2(CC2)Cc2[nH]c(-c3ccnc(NC(=O)C(CC(F)F)c4ccc(F)cc4)c3)c(Nc3ccccc3)c21 (single isomer, unassigned; enantiomer 2) [Example 149, N-[4-(3′-anilino-4′-oxo-1′,4′,5′,7′-tetrahydrospiro[cyclopropane-1,6′-pyrrolo[3,2-c]pyridin]-2′-yl)pyridin-2-yl]-4,4-difluoro-2-(4-fluorophenyl)butanamide (Enantiomer 2)]	7.39	6.33	7.40	4.78	–
CC(C(=O)Nc1cc(-c2[nH]c3c(c2Nc2ccccc2)C(=O)N(C)C2(CCC2)C3)ccn1)c1ccc(F)cc1 (single isomer, unassigned; enantiomer 2) [Example 159, (+)-N-[4-(3′-anilino-5′-methyl-4′-oxo-1′,4′,5′,7′-tetrahydrospiro[cyclobutane-1,6′-pyrrolo[3,2-c]pyridin]-2′-yl)pyridin-2-yl]-2-(4-fluorophenyl)propanamide (Enantiomer 2)]	7.04	6.66	7.04	–	< 4.70
CN1C(=O)c2c([nH]c(-c3ccnc(NC(=O)C(CC(F)F)c4ccc(F)cc4)c3)c2Nc2ccccc2)CC12CCC2 (single isomer, unassigned; enantiomer 2) [Example 162, (+)-N-[4-(3′-anilino-5′-methyl-4′-oxo-1′,4′,5′,7′-tetrahydrospiro[cyclobutane-1,6′-pyrrolo[3,2-c]pyridin]-2′-yl)pyridin-2-yl]-4,4-difluoro-2-(4-fluorophenyl)butanamide (Enantiomer 2)]	7.22	7.21	7.28	–	< 4.70
